Molecular target: HEK293 cells with stable expression of the GRIN1 gene and tetracycline-inducible expression of the GRIN2B gene (NMDA receptor, NR2B) (Homo sapiens, UniProt Q13224)
Test: Fluo-8 Ca2+ flux assay: reversal of Ro 25-6981-mediated suppression of the Ca2+ response to co-agonist (glutamate/glycine); also: test concentration or dose not given here
Format: cell-based
Conditions: reversal of the Ro 25-6981 suppression of the Ca2+ response to co-agonist (glutamate/glycine)

Sequence of HEK293 cells with stable expression of the GRIN1 gene and tetracycline-inducible expression of the GRIN2B gene (NMDA receptor, NR2B) (Q13224 27-1484, other chains not shown): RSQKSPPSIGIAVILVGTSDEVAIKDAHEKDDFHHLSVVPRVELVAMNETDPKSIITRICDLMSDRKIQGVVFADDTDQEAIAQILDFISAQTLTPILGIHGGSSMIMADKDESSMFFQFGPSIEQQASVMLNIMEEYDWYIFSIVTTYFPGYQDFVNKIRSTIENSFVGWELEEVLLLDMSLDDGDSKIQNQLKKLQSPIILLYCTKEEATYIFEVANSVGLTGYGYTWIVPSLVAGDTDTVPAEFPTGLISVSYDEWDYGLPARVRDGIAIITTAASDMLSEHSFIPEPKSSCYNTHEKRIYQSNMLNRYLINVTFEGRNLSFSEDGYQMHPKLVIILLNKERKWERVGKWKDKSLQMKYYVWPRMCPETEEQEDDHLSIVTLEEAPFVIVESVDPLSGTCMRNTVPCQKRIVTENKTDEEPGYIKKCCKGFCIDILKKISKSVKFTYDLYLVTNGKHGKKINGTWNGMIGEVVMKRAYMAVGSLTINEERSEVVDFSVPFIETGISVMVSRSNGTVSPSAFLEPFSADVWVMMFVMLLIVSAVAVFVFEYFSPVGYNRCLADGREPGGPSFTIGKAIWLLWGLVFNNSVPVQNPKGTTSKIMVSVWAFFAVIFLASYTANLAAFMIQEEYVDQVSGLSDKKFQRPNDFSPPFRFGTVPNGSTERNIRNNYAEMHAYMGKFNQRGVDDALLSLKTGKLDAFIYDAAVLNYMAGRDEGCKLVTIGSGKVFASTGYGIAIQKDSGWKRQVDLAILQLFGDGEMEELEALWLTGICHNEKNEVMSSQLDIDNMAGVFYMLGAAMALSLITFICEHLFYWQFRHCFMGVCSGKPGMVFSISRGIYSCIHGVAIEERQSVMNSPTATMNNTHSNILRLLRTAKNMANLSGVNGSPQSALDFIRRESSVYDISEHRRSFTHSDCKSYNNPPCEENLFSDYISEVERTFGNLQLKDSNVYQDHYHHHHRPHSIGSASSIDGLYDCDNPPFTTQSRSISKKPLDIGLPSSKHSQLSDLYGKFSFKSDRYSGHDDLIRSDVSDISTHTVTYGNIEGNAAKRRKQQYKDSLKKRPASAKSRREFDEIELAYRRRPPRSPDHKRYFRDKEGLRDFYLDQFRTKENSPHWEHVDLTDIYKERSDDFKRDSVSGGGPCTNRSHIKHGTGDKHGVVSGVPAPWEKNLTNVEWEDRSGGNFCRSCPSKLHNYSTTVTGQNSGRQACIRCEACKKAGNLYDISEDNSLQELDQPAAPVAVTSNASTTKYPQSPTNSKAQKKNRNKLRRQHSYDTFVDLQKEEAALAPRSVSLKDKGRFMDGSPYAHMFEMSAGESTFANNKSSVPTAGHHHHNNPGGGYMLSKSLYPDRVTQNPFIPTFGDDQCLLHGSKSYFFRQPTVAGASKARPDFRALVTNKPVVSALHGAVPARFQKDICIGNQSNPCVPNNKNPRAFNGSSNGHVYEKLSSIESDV

**Q.** With `O=C(Cn1ccn2c(C3CC3)nc(-c3ccc(F)c(Cl)c3)c2c1=O)N1CCC(F)C1` (centres unmarked) [Example 432, 1-(3-chloro-4-fluorophenyl)-3-cyclopropyl-7-(2-(3-fluoropyrrolidin-1-yl)-2-oxoethyl)imidazo[1,5-a]pyrazin-8(7H)-one] as the molecule, how does the “Response Recovered (%)” value read?
**A.** 19%

**Q.** For `O=C(Cn1ccn2c(C3CC3)nc(-c3ccc(Cl)c(Cl)c3)c2c1=O)N1CCC(F)C1` (centres unmarked) [Example 433, 3-cyclopropyl-1-(3,4-dichlorophenyl)-7-(2-(3-fluoropyrrolidin-1-yl)-2-oxoethyl)imidazo[1,5-a]pyrazin-8(7H)-one], which “Response Recovered (%)” value is on record?
**A.** 68%

**Q.** With `O=C(Cn1ccn2c(C3CC3)nc(-c3ccc(F)c(C(F)(F)F)c3)c2c1=O)N1CCC(F)C1` (centres unmarked) [Example 434, 3-cyclopropyl-1-(4-fluoro-3-(trifluoromethyl)phenyl)-7-(2-(3-fluoropyrrolidin-1-yl)-2-oxoethyl)imidazo[1,5-a]pyrazin-8(7H)-one] as the molecule, how does the “Response Recovered (%)” value read?
**A.** 40%

**Q.** With `CC1(F)CN(C(=O)Cn2ccn3c(C4CC4)nc(-c4ccc(Cl)c(Cl)c4)c3c2=O)C1` [Example 435, 3-cyclopropyl-1-(3,4-dichlorophenyl)-7-(2-(3-fluoro-3-methylazetidin-1-yl)-2-oxoethyl)imidazo[1,5-a]pyrazin-8(7H)-one] as the molecule, how does the “Response Recovered (%)” value read?
**A.** 120%

**Q.** How did the “Response Recovered (%)” value turn out when `CC1(F)CN(C(=O)Cn2ccn3c(C4CC4)nc(-c4ccc(F)c(Cl)c4)c3c2=O)C1` [Example 436, 1-(3-chloro-4-fluorophenyl)-3-cyclopropyl-7-(2-(3-fluoro-3-methylazetidin-1-yl)-2-oxoethyl)imidazo[1,5-a]pyrazin-8(7H)-one] was run?
**A.** 100%

**Q.** With `CC1(F)CN(C(=O)Cn2ccn3c(C4CC4)nc(-c4cnc(Cl)c(Cl)c4)c3c2=O)C1` [Example 437, 3-cyclopropyl-1-(5,6-dichloropyridin-3-yl)-7-(2-(3-fluoro-3-methylazetidin-1-yl)-2-oxoethyl)imidazo[1,5-a]pyrazin-8(7H)-one] as the molecule, how does the “Response Recovered (%)” value read?
**A.** 65%

**Q.** `CC1(F)CN(C(=O)Cn2ccn3c(C4CC4)nc(-c4ccc(F)c(C(F)(F)F)c4)c3c2=O)C1` [Example 438, 3-cyclopropyl-1-(4-fluoro-3-(trifluoromethyl)phenyl)-7-(2-(3-fluoro-3-methylazetidin-1-yl)-2-oxoethyl)imidazo[1,5-a]pyrazin-8(7H)-one] was tested. Which “Response Recovered (%)” value did it give?
**A.** 79%

**Q.** Which “Response Recovered (%)” value does the source give for `O=C(Cn1ccn2c(C3CC3)nc(-c3ccc(F)c(Cl)c3)c2c1=O)N1CC(F)(CF)C1` [Example 439, 1-(3-chloro-4-fluorophenyl)-3-cyclopropyl-7-(2-(3-fluoro-3-(fluoromethyl)azetidin-1-yl)-2-oxoethyl)imidazo[1,5-a]pyrazin-8(7H)-one] here?
**A.** 120%

**Q.** Which “Response Recovered (%)” value does the source give for `O=C(Cn1ccn2c(C3CC3)nc(-c3ccc(Cl)c(Cl)c3)c2c1=O)N1CC(F)(CF)C1` [Example 440, 3-cyclopropyl-1-(3,4-dichlorophenyl)-7-(2-(3-fluoro-3-(fluoromethyl)azetidin-1-yl)-2-oxoethyl)imidazo[1,5-a]pyrazin-8(7H)-one] here?
**A.** 110%

**Q.** For `CC1(F)CN(C(=O)Cn2ccn3c(C4CC4)nc(-c4cnc(F)c(Cl)c4)c3c2=O)C1` [Example 441, 1-(5-chloro-6-fluoropyridin-3-yl)-3-cyclopropyl-7-(2-(3-fluoro-3-methylazetidin-1-yl)-2-oxoethyl)imidazo[1,5-a]pyrazin-8(7H)-one], which “Response Recovered (%)” value is on record?
**A.** 46%

**Q.** For `Cc1cc(-c2nc(C3CC3)n3ccn(CC(=O)N4CC(C)(F)C4)c(=O)c23)ccc1F` [Example 442, 3-cyclopropyl-7-(2-(3-fluoro-3-methylazetidin-1-yl)-2-oxoethyl)-1-(4-fluoro-3-methylphenyl)imidazo[1,5-a]pyrazin-8(7H)-one], which “Response Recovered (%)” value is on record?
**A.** 65%
